Measurements published in ChEMBL document CHEMBL6182916, “Unexpected Discovery of a Novel Triphenylphosphonium Alkylalcohol That Triggers Cancer Cell Death via Mitophagy and Ferroptosis” (J Med Chem, 2025).
Active and inactive are the calls of the source. The calls are words filed in the database; no cut-off is given here.

Columns and labels:
[1] = molecular target: T1, Heat shock protein 75 kDa, mitochondrial (Homo sapiens) (UniProt Q12931); assay: Inhibition of human TRAP1 assessed as fold increase in ATPase activity at 20 uM
T1 sequence (whole entry): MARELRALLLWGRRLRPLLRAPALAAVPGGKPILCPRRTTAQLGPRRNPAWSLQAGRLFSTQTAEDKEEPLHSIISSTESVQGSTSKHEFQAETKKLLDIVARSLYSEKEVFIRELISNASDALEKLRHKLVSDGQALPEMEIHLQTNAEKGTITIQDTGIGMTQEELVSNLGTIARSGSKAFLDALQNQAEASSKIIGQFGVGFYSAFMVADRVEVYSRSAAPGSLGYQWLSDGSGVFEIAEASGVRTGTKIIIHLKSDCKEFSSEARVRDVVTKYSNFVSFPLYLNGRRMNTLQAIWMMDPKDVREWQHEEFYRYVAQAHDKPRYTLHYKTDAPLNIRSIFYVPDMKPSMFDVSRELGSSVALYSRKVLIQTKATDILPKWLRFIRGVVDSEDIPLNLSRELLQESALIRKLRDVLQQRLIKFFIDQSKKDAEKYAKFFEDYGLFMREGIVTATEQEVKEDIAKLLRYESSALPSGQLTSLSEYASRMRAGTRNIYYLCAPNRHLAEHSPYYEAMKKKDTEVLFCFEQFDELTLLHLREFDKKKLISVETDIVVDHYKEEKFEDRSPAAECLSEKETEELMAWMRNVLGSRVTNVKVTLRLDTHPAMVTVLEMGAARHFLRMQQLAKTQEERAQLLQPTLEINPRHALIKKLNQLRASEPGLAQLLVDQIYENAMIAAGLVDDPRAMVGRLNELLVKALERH

HCC827 [2] = assay: Induction of apoptosis in human HCC827 cells assessed as viable cells at 1.0 uM measured after 48 hrs by annexin V and PI staining based flow cytometry analysis (reference value: 96.74%); format: functional; details: read-out: Activity
HCC827 [3] = assay: Induction of mitochondrial dysfunction in human HCC827 cells assessed as cytochrome C release in cytoplasm at 1 uM measured after 72 hrs by laser scanning confocal fluorescence microscopic analysis; format: functional, cell-based
NCI-H1299 = assay: Antiproliferative activity against human NCI-H1299 cells assessed as inhibition of cell growth measured after 72 hrs by MTT assay; format: functional, cell-based; details: NCI-H1299, 72 h
HCC827 [4] = assay: Induction of ROS generation in human HCC827 cells assessed as increase in NAD+/NADH ratio at 1 uM incubated for 4 hrs by absorbance based analysis; format: functional, cell-based
NCI-H1975 = assay: Antiproliferative activity against human NCI-H1975 cells assessed as inhibition of cell growth measured after 72 hrs by MTT assay; format: functional, cell-based; details: NCI-H1975, 72 h
A-375 [5] = assay: Antiproliferative activity against human A-375 cells assessed as inhibition of cell growth measured after 72 hrs by MTT assay; format: functional, cell-based; details: A-375, 72 h
[6] = Antiproliferative activity against human BEAS-2B cells assessed as inhibition of cell growth measured after 72 hrs by MTT assay; format: toxicity, cell-based
HCC827 [7] = assay: Induction of cell cycle arrest in human HCC827 cells assessed as accumulation of cells at G1 phase at 0.4 uM incubated for 24 hrs by PI staining based flow cytometry analysis (reference value: 66.44%); format: functional
MCF7 = assay: Antiproliferative activity against human MCF7 cells assessed as inhibition of cell growth measured after 72 hrs by MTT assay; format: functional, cell-based; details: MCF7, 72 h
SK-LU-1 = assay: Antiproliferative activity against human SK-LU-1 cells assessed as inhibition of cell growth measured after 72 hrs by MTT assay; format: functional, cell-based; details: SK-LU-1, 72 h
[8] = Drug accumulation in mitochondria of human HCC827 cells at 10 uM incubated for 10 mins in presence of CCCP by RP-HPLC-UV analysis; format: ADME; details: hcc827, 10 min
HCC827 [9] = assay: Induction of apoptosis in human HCC827 cells assessed as early apoptotic cells at 1 uM measured after 48 hrs by annexin V and PI staining based flow cytometry analysis (reference value: 0.70%); format: functional
Mitochondrial membrane = assay: Induction of mitochondrial membrane depolarization in human HCC827 cells assessed as increase in J-monomer ratio at 0.5 uM incubated for 4 hrs by JC-1 staining based flow cytometric analysis; format: cell membranes
HCC827 [10] = assay: Inhibition of colony formation in human HCC827 cells at 0.2 uM incubated for 72 hrs by crystal violet staining based analysis; format: functional, cell-based
HCC827 [11] = assay: Induction of cell cycle arrest in human HCC827 cells assessed as accumulation of cells at S phase at 0.4 uM incubated for 24 hrs by PI staining based flow cytometry analysis (reference value: 26.41%); format: functional
HCC827 [12] = assay: Induction of apoptosis in human HCC827 cells assessed as necrotic cells at 1 uM measured after 48 hrs by annexin V and PI staining based flow cytometry analysis (reference value: 1.18%); format: functional
[13] = test system: Osimertinib-resistant NCI-H1975 cell; assay: Antiproliferative activity against human Osimertinib-resistant NCI-H1975 cell assessed as inhibition of cell growth measured after 72 hrs by MTT assay; format: functional, cell-based
HCC827 [14] = assay: Induction of ROS generation in human HCC827 cells assessed as decrease in NADH content at 1 uM incubated for 4 hrs by absorbance based analysis; format: functional, cell-based
HCC827 [15] = assay: Induction of apoptosis in human HCC827 cells assessed as late apoptotic cells at 1 uM measured after 48 hrs by annexin V and PI staining based flow cytometry analysis (reference value: 1.29%); format: functional
MDA-MB-231 = assay: Antiproliferative activity against human MDA-MB-231 cells assessed as inhibition of cell growth measured after 72 hrs by MTT assay; format: functional, cell-based; details: MDA-MB-231, 72 h
HCC827 [16] = assay: Antiproliferative activity against human HCC827 cells assessed as inhibition of cell growth measured after 72 hrs by MTT assay; format: functional, cell-based; details: HCC827, 72 h
[17] = Drug accumulation in mitochondria of human HCC827 cells at 10 uM incubated for 5 mins; format: ADME; details: hcc827, 5 min
NCI-H460 = assay: Antiproliferative activity against human NCI-H460 cells assessed as inhibition of cell growth measured after 72 hrs by MTT assay; format: functional, cell-based; details: NCI-H460, 72 h
[18] = Antiproliferative activity against human LO2 cells assessed as inhibition of cell growth measured after 72 hrs by MTT assay; format: toxicity, cell-based, L02
NCI-H1650 = assay: Antiproliferative activity against human NCI-H1650 cells assessed as inhibition of cell growth measured after 72 hrs by MTT assay; format: functional, cell-based; details: NCI-H1650, 72 h
HCC827 [19] = assay: Induction of cell cycle arrest in human HCC827 cells assessed as accumulation of cells at G2 phase at 0.4 uM incubated for 24 hrs by PI staining based flow cytometry analysis (reference value: 7.15%); format: functional
[20] = Antiproliferative activity against HEK293T cells assessed as inhibition of cell growth measured after 72 hrs by MTT assay; format: toxicity, cell-based, HEK-293T; details: human
[21] = Antiproliferative activity against human HUVEC cells assessed as inhibition of cell growth measured after 72 hrs by MTT assay; format: toxicity, cell-based
[22] = Antiproliferative activity against human Osimertinib-resistant HCC827 cell assessed as inhibition of cell growth measured after 72 hrs by MTT assay; format: functional, cell-based
HCT-116 = assay: Antiproliferative activity against human HCT-116 cells assessed as inhibition of cell growth measured after 72 hrs by MTT assay; format: functional, cell-based; details: HCT-116, 72 h
A549 = assay: Antiproliferative activity against human A549 cells assessed as inhibition of cell growth measured after 72 hrs by MTT assay; format: functional, cell-based; details: A549, 72 h
[23] = Drug uptake in human HCC827 cells mitochondria assessed as increase in fluorescence intensity at 10 uM by fluorescence emission spectroscopy analysis; format: ADME; details: hcc827, 10 µM
[24] = Drug localization in mitochondria of human HCC827 cells assessed as increase in green fluorescence by measuring pearson correlation coefficient at 10 uM incubated for 10 mins by mito-tracker green dye based confocal scanning microscopy analysis; format: ADME; details: hcc827, 10 min
[25] = Drug metabolism in human HCC827 cells mitochondria assessed as 2-(2-(4-hydroxystyryl)-4H-chromen-4-ylidene)malononitrile hydrolysis at 10 uM incubated for 5 mins by fluorescence emission spectroscopy analysis; format: ADME; details: hcc827, 5 min
A-375 [26] = assay: Anticancer activity against human A-375 cells assessed as inhibition of cell growth by MTT assay; format: functional, cell-based
[27] = Drug localization in mitochondria of human HCC827 cells assessed as increase in green fluorescence by measuring pearson correlation coefficient at 5 uM incubated for 10 mins by mito-tracker green dye based confocal scanning microscopy analysis; format: ADME; details: hcc827, 10 min
HeLa [28] = assay: Induction of mitophagy in human HeLa cells harbouring mCherry-GFP tag assessed as visible mCherry fluorescence at 40 uM incubated for 24 hrs by confocal microscopy analysis; format: functional, cell-based
HeLa [29] = assay: Induction of mitophagy in human HeLa cells harbouring mCherry-GFP tag assessed as reduction in GFP fluorescence at 40 uM incubated for 24 hrs by confocal microscopy analysis; format: functional, cell-based
HeLa [30] = assay: Induction of mitophagy in human HeLa cells assessed as colocalization of mitochondria and lysosomes at 40 uM by lysotracker red staining based confocal microscopy analysis; format: functional, cell-based
HeLa [31] = assay: Induction of mitophagy in human HeLa cells assessed as colocalization of mitochondria and lysosomes at 40 uM by mitoGFP staining based confocal microscopy analysis; format: functional, cell-based

SMILES: CC1=C(C)C(=O)C(CCCCCCCCCC[P+](c2ccccc2)(c2ccccc2)c2ccccc2)=CC1=O
- fold change (FC) [1]: 1.4

SMILES: OCCCCCCCCCC[P+](c1ccc(C(F)(F)F)cc1)(c1ccc(C(F)(F)F)cc1)c1ccc(C(F)(F)F)cc1.[Br-]
- viability at 1 µM (HCC827 [2]): 92.1%
- Activity (HCC827 [3]): inactive
- IC50 (NCI-H1299): > 10 µM
- Activity (HCC827 [4]): Active
- IC50 (NCI-H1975): > 5 µM
- IC50 (A-375 [5]): 5.4 µM
- IC50 at 72 h [6]: 6.9 µM
- Activity (HCC827 [7]): 69.33%
- IC50 (MCF7): 6.45 µM
- IC50 (SK-LU-1): > 5 µM
- Drug uptake [8]: Not_active
- Activity (HCC827 [9]): 1.3%
- Activity (Mitochondrial membrane): inactive
- inhibition (HCC827 [10]): Weak_effect
- Activity (HCC827 [11]): 26.29%
- Activity (HCC827 [12]): 2.87%
- IC50 [13]: 5.32 µM
- Activity (HCC827 [14]): Active
- Activity (HCC827 [15]): 2.72%
- IC50 (MDA-MB-231): 6.29 µM
- IC50 (HCC827 [16]): > 5 µM
- Drug uptake [17]: 52%
- IC50 (NCI-H460): 3.09 µM
- IC50 at 72 h [18]: > 40 µM
- IC50 (NCI-H1650): 1.97 µM
- Activity (HCC827 [19]): 4.38%
- IC50 at 72 h [20]: 13.8 µM
- IC50 at 72 h [21]: > 40 µM
- IC50 [22]: > 5 µM
- IC50 (HCT-116): 7.73 µM
- IC50 (A549): 6.12 µM

SMILES: Cc1ccc([P+](CCCCCCCCCCOC(=O)Oc2ccc(/C=C/C3=CC(=C(C#N)C#N)c4ccccc4O3)cc2)(c2ccc(C)cc2)c2ccc(C)cc2)cc1.[Br-]
- Drug uptake [23]: Active
- Drug uptake [24]: 0.84
- Drug metabolism [25]: metabolite_detected

SMILES: O=C(CCCCC(CCSCc1ccccc1)SCc1ccccc1)OCCCCC[P+](c1ccccc1)(c1ccccc1)c1ccccc1 (centres undefined)
- IC50 (A-375 [26]): 4.15 µM

SMILES: N#CC(C#N)=C1C=C(/C=C/c2ccc(OC(=O)OCCCCCCCCCC[P+](c3ccccc3)(c3ccccc3)c3ccccc3)cc2)Oc2ccccc21.[Br-]
- Drug uptake [23]: Active
- Drug uptake [24]: 0.9
- Drug metabolism [25]: metabolite_detected

SMILES: N#CC(C#N)=C1C=C(/C=C/c2ccc(O)cc2)Oc2ccccc21
- Drug uptake [27]: 0.21

SMILES: N#CC(C#N)=NNc1cccc(Cl)c1
- Activity (HeLa [28]): Active
- Activity (HeLa [29]): Active
- Activity (HeLa [30]): Active
- Activity (HeLa [31]): Active
